These results are taken from patent US11986522B2, “Immunotherapeutic composition and uses thereof” (ARAVAX PTY LTD, priority 2013, dated 2024).

“Also recorded” adds a separate entry of the source. No end group written: not given here.

Data set [1] has as its system HLA-DR, HLA-DQ, HLA-DP. The data set can be described thus: HLA class II blocking assays (anti-HLA mAb, TCL proliferation). The data set is classed as cell-based, human. The note with it: for antibody that blocked T cell recognition of the epitope: Ara h 2 epitopes. As for the experimental part: Materials and Methods Subjects: Peanut-allergic adult subjects were recruited from The Alfred Allergy Clinic, Melbourne, Australia. […] Some subjects were genotyped (HLA-DRB1, -DQB1 and -DPB1, exon 2) by the Victorian Transplantation and Immunogenetics Service. The study was approved by The Alfred and Monash University Ethics Committees and informed written consent obtained from each subject. Antigens: Crude peanut extract (CPE) was prepared from commercial unsalted, dry-roasted peanuts as described elsewhere, (de Leon et al. Clin Exp Allergy. 2003; 33(9):1273-80) dialyzed against phosphate-buffered saline (PBS) and filter-sterilized (0.2 μm). Natural Ara h 1 and Ara h 2 were enriched from CPE based on published methodology. (de Jong E C et al. Clin Exp Allergy. 1998; 28(6):743-51) Briefly, CPE was buffer exchanged into 20 mM TRIS-bis-propane (TBP), pH 7.2, using Vivaspin columns (Sartorius Stedim Biotech S.A., Aubagne, France) and applied onto a 5 mL Mono-Q 10/10 column (Pharmacia FPLC System, St Albans, UK) equilibrated with TBP. After washing with TBP, a linear gradient of 30 mL 0-1 M NaCl/TBP was applied to elute bound proteins (1 mL/min). Fractions, 0.5 mL, were analyzed by SDS-PAGE and those containing Ara h 1 or Ara h 2 with minimal other proteins pooled and dialyzed against PBS. Endotoxin contents were 1.7, 4.0 and 78.0 EU/mg for CPE, Ara h 1 and Ara h 2 respectively (Endpoint Chromogenic LAL assay, Lonza, Walkersville, USA). Peptides (Mimotopes, Victoria, Australia and GenScript USA Inc, New Jersey, USA) were reconstituted at 1-4 mg/ml in 10% dimethyl sulfoxide/PBS (20-mers and truncated peptide sets) or PBS, 1-2% acetic acid or 0.1M ammonium bicarbonate buffers as specified (custom-synthesized core epitope peptides). All antigens were confirmed to be neither mitogenic nor toxic as described (Eusebius N P et al., Int Arch Allergy Immunol. 2002; 127(3):234-44). Generation of Ara h 1 and Ara h 2-specific CD4+ T-cell lines (TCL): Ara h 1 or Ara h 2-specific oligoclonal TCL were generated from peripheral blood mononuclear cells (PBMC) of peanut-allergic subjects using 5,6-carboxyfluorescein diacetate succinimidylester (CFSE)-based methodology. (Mannering S I et al., J Immunol Methods. 2005; 298(1-2):83-92; Prickett S R, et al., J Allergy Clin Immunol. 2011; 127(3):608-15 el-5). Briefly, culturing was performed in RPMI-1640 containing 2 mM L-glutamine, 100 IU/mL penicillin-streptomycin and 5% human AB serum (Sigma-Aldrich, St Louis, USA) (cRPMI). PBMC were labelled with 0.1 μM CFSE (Molecular Probes, Eugene, USA) and cultured (2.5×10^6/mL) with cRPMI alone, CPE (100 μg/mL), Ara h 1 or Ara h 2 (10 μg/mL), Ara h 1 or Ara h 2 20-mer-peptide pools (10 μg/mL/peptide) or as a control, tetanus toxoid (TT; 10 LfU/mL; Statens Serum Institute, Copenhagen, Denmark) for 7 days at 37° C. After staining with CD4-PE and 7AAD (BD Pharmingen, San Diego, USA), CD4+CFSEdim7AAD-cells were sorted (10 cells/well) into 96-U-well plates containing irradiated allogeneic feeder-cells, anti-CD3 (OKT-3), rIL-2 (Cetus, Emeryville, USA) and Fungizone (Invitrogen, Carlsbad, USA) as described. Cells were fed with rIL-2 as required and after 10-14 days, transferred to 48-well plates and tested for proliferation to Ara h 1 or Ara h 2 (10 μg/mL). Ara h 1 or Ara h 2-positive TCL were expanded with anti-CD3 and rIL-2 in T25 culture flasks (BD, Franklin Lakes, USA) for 10-12 days then tested for specificity (proliferation) to overlapping 20-mer peptides spanning the respective sequence (10 μg/mL). Core epitope sequences were mapped within selected 20-mers using peptide sets truncated from the N- or C-terminus of the 20-mer as described (Prickett S R, et alc. J Allergy Clin Immunol. 2011; 127(3):608-15 el-5). T-cell assays:All culturing was performed in RPMI-1640 containing 2 mM L-glutamine, 100 IU/mL penicillin-streptomycin and 5% heat-inactivated human AB serum (Sigma-Aldrich, St Louis, USA) (cRPMI). […]

In data set [2] the test system is HLA-DRB1, -DQB1 and -DPB1. Briefly: HLA-genotyping of subjects whose TCL recognise the epitopes. Further details: species or system human. To be noted: for HLA allele presenting the epitope / present in all recognising subjects: HLA-typed subjects; for HLA-binding degeneracy (presented by): no shared allele between responding subjects.
Data set [3] has as its system PBMC CD4+ T cells of peanut-allergic subjects. Briefly: 7-day CFSE assay of peptide-induced CD4+ T-cell proliferation/activation within whole PBMC. It is filed as cell-based, human. To be noted: screen of 25 new subjects.
The nature of data set [4]: Peptide solubility in buffers. The data set is classed as physicochemical.
Data set [5] has as its system specific IgE. To be noted: cited from earlier work.
The mark [6] stands for this setting: Table 4, dominant core T cell epitopes.

KAMVIVVVNKGTGNLELVAV [51 ‘core’]: the HLA-restriction result in data set [1] (setting [6]) is on record as “HLA-DR”; in data set [1] (Table 7, 10 candidate peptides) it was “HLA-DR”.
As for “NNFGKLFEVKPDKKNPQLQ (listed as Arachis hypogaea) [46 + 47 core]”, the HLA-restriction result in data set [1] (Table 7, 10 candidate peptides) was “HLA-DR”.
As to ALMLPHFNSKAMVIVVV [50 core], the HLA-restriction entry in data set [1] (setting [6]) is listed as “HLA-DR”; in data set [1] (Table 7, 10 candidate peptides) it was “HLA-DR”.
For the molecule ANLRPCEQHLM [4/5 core], in data set [2], the “HLA-DR molecules presenting the epitope” value is on record as “at least 2”, the “HLA allele presenting the epitope / present in all recognising subjects” value is “HLA-DQB1*06:09” and the “HLA-binding degeneracy (presented by)” value is reported as “multiple HLA-DRB1 molecules”. The “antibody that blocked T cell recognition of the epitope” value in data set [1] is “anti-HLA-DR”. Besides, in data set [1] (setting [6]), the HLA-restriction result is “HLA-DR; also recorded: HLA-DQ”.
For the molecule “RIVQIEAKPNTLV (listed as Arachis hypogaea) [24 core]”, the HLA-restriction entry in data set [1] (setting [6]) is recorded as “HLA-DR”.
Same read-out and setting: the value for ELNEFENNQRCM [10 core] was “HLA-DR”.
Take “EVKPDKKNPQLQ (listed as Arachis hypogaea) [Peptide 15]”: the “T cell responses compared with longer version containing an additional epitope” value in data set [3] is “Induced equivalent T cell”. Besides, the HLA-restriction result in data set [1] (setting [6]) was “HLA-DR”.
For SQLERANLRPCEQ [4 core], the “HLA allele presenting the epitope / present in all recognising subjects” value in data set [2] is “DPB1*04:01”. In data set [1], the “antibody that blocked T cell recognition of the epitope” value is “anti-HLA-DP”. Moreover, in data set [1] (setting [6]), the HLA-restriction entry was “HLA-DP”.
On to EFENNQRCMCEALQ [10/11 core], for which, in data set [2], the “HLA allele presenting the epitope / present in all recognising subjects” value was “DRB1*15:01” and the “HLA-binding degeneracy (presented by)” value was “multiple HLA-DQB1 molecules”. In addition, in data set [1] (setting [6]), the HLA-restriction entry is “HLA-DQ”.
Take “KAMVIVVVNKG (KAMVIVVVNKGTGNLELVAVD; listed as Arachis hypogaea) [50/51 core]”: in data set [1] (setting [6]), the HLA-restriction result is “HLA-DR”.
Turning to ANLRPSEQHLM [Peptide 21], the “T cell responses compared with longer version containing an additional epitope” value in data set [3] is “Induced equivalent T cell”.
In the case of “GDVFIMPAAHPVAINASS (listed as Arachis hypogaea) [57 core]”, the HLA-restriction entry in data set [1] (setting [6]) is on record as “HLA-DR; also recorded: HLA-DQ”; in data set [1] (Table 7, 10 candidate peptides) it was “HLA-DR; also recorded: HLA-DQ”.
For the molecule “FQNLQNHRIVQIEAKPNTLV (listed as Arachis hypogaea) [Peptide 1]”, in data set [1] (Table 7, 10 candidate peptides), the HLA-restriction result is listed as “HLA-DR”.
As for ELNEFENNQRSMSEALQ [10 + 10/11 core], the HLA-restriction result in data set [1] (Table 7, 10 candidate peptides) was “HLA-DR; also recorded: or -DQ”.
Regarding NNFGKLFEVKPDKKNPQ [46 core], the HLA-restriction result in data set [1] (setting [6]) is on record as “HLA-DR”.
EFENNQRSMSEALQ [Peptide 23]: the “T cell responses compared with longer version containing an additional epitope” value in data set [3] was “Induced equivalent T cell”.
On to “GDVFIMPAAHPVAINASSE [Peptide 7, GDVFIMPAAHPVAINASSE]”, for which the “solubility of the version without the added C-terminal ‘E’” value in data set [4] was “insoluble except in toxic buffers”. In addition, the “solubility in PBS, 0.1M NH4HCO3, or 1-2% acetic acid” value in data set [4] (redesigned new version for peptide 7) was “soluble; peptide 7 in Table 7)”.
With “VEIKEGALMLPHFNSKA (listed as Arachis hypogaea) [Peptide 4]”, the HLA-restriction result is on record as “HLA-DQ” in data set [1] (setting [6]) and “HLA-DQ” in data set [1] (Table 7, 10 candidate peptides).
For “FQNLQNHRIV (listed as Arachis hypogaea) [23 core]”, the HLA-restriction entry in data set [1] (setting [6]) is listed as “HLA-DR”.
Consider RELRNLPQQCGLRA [15 core], for which the “HLA-binding degeneracy (presented by)” value in data set [2] is “multiple HLA-DRB1 molecules”. Moreover, the “antibody that blocked T cell recognition of the epitope” value in data set [1] is “anti-HLA-DR”.
On to WSTRSSENNEGVIVKVSKE [40 core], for which the HLA-restriction entry was “HLA-DQ” in data set [1] (setting [6]) and “HLA-DQ” in data set [1] (Table 7, 10 candidate peptides).

B1: Ara h 2: major peanut allergen, glycoprotein of the conglutin seed storage family (protein, listed as Arachis hypogaea)
chain: LTILVALALFLLAAHASARQQWELQGDRRCQSQLERANLRPCEQHLMQKIQRDEDSYERDPYSPSQDPYSPSPYDRRGAGSSQHQERCCNELNEFENNQRCMCEALQQIMENQSDRLQGRQQEQQFKRELRNLPQQCGLRAPQRCDLDVESGGRDRY
In the case of B1, the “sera reactive with Ara h 2” value in data set [5] (Burks et al, 1992) is reported as 6 out of 6. Besides, the “subjects with specific IgE to purified natural Ara h 2” value in data set [5] (de Jong's group) is listed as “approximately 78%”. Also, the “subjects possessing specific IgE to Ara h 2” value in data set [5] (western blotting of crude peanut extract, Clarke) is given as 71%. The “subjects possessing IgE towards recombinant form” value in data set [5] (western blotting, Kleber-Janke et al.) is listed as 85%.
